Source: patent US10722484B2, “Methods of cancer treatment” (K-Gen, Inc., priority 2016, dated 2020)
pEC50: −log10 of the molar value. Like-named read-outs stand apart in the source and are kept apart here.

Assays:
[1] = tested on: A549 lung cancer cell line; assay: Combination viability/proliferation assays (384-well IC50 ratio, 96-well MacSynergy II); format: cell-based
Protocol: A 96-well MacSynergy II format for combination test was also used. […] The analysis was done with the SQRT(Data) scale and the four parameter Hill curve was fitted using XLfit5.1 (the MacSynergy II Excel Spreadsheet) for the inhibition data. Synergy (positive number) or Antagonism (negative number) volumes were calculated. […] Three-dimensional MacSynergy II graphs were generated where positive values indicated synergism and negative values indicated antagonism.

[2] = tested on: HL-60 human promyelocytic leukemia cells; assay: Combination viability/proliferation assays
Protocol: Briefly, cells at density of 1,000-10,000 cells/well in 96-well plates or 200-1600 cells/well in 384-well plates were seeded and incubated at 37° C. for 24 hours before addition of compounds. A series of 9 different concentrations of compound stocks (500×) were prepared by 3-fold serial dilutions in DMSO. […] After 96 hours of incubation, 35 μL or 50 μL of CellTiter Glo reagent (Promega) was added to each well and luminescence was measured after 10 minutes using EnVision (PerkinElmer). Luminescence from cells treated with DMSO alone was set as Max and % of inhibition was calculated as follows: Inhibition %=(Max-Sample value)/Max*100. Data were analyzed using XLfit software (ID Business Solutions Ltd.) or GraphPad software and IC50, relative IC50, and % of top inhibition were calculated.
The top concentration for the tested PKC activator compound was set at roughly the IC50 when the same testing compound was used as a single agent assayed in the same cell line. The next dose was either 3-fold or 10-fold dilution from the top concentration.

AsPC-1 = assay: Proliferation assay (CellTiter Glo); format: cell-based; details: for Top Inhibition %: % of top inhibition
Protocol: (§1) The dose range for most compounds was 4.6 nM-30 μM. The dose ranges for some compounds were adjusted downward to 0.46 nM-3 μM or 0.08 nM-0.5 μM or 0.03 nM-0.2 μM. […] The results are shown in Tables 3-6 for pancreatic cancer, lung cancer, colon/gastric cancer, and leukemia.

CCRF-CEM = assay: Proliferation assay (CellTiter Glo); format: cell-based; details: for Top Inhibition %: % of top inhibition
Protocol: as §1

Pan2.03 = assay: Proliferation assay (CellTiter Glo); format: cell-based; details: for Top Inhibition %: % of top inhibition
Protocol: as §1

Pan2.13 = assay: Proliferation assay (CellTiter Glo); format: cell-based; details: for Top Inhibition %: % of top inhibition
Protocol: as §1

BxPC-3 = assay: Proliferation assay (CellTiter Glo); format: cell-based; details: BxPC-3 (RAS WT); 96 hours
Protocol: as §1
(§2) Other cancer cell lines having wild-type K-RAS status and K-RAS mutation at G12 were also screened using the PKC activator compounds. […] K104 was tested in a range of 0.03 nM-0.2 μM. […] The dose ranges were adjusted downward to 0.46 nM-3 μM for K102 and 0.08 nM-0.5 μM for K103 for some cell lines. The results of the screening of cancer cells lines with wild-type K-RAS status and K-RAS mutations at the G12 positions are presented in Table 7.

Colo205 = assay: Proliferation assay (CellTiter Glo); format: cell-based; details: Colo205 (RAS WT); 96 hours
Protocol: as §1, §2

H1915 = assay: Proliferation assay (CellTiter Glo); format: cell-based; details: H1915 (RAS WT); 96 hours
Protocol: as §1, §2

H838 = assay: Proliferation assay (CellTiter Glo); format: cell-based; details: H838 (RAS WT); 96 hours
Protocol: as §1, §2

HT29 = assay: Proliferation assay (CellTiter Glo); format: cell-based; details: HT29 (RAS WT); 96 hours
Protocol: as §1, §2

[3] = tested on: pancreatic, lung, colon and leukemia cancer cell lines; assay: Proliferation assay, summary over the panel of cancer cell lines; format: cell-based
Protocol: PKC activator compounds were tested in a panel of K-RAS mutant pancreatic, lung, and colon cancer cell lines, as well as a number of leukemia cell lines having either mutant K-RAS or N-RAS.
as §1

RPMI8226 = assay: Proliferation assay (CellTiter Glo); format: cell-based; details: RPM18226; 96 hours
Protocol: as §1, §2

SW900 = assay: Proliferation assay (CellTiter Glo); format: cell-based; details: SW900 (K-RAS: G12V); 96 hours
Protocol: as §1, §2

Cc1sc2c(c1C)C(c1ccc(Cl)cc1)=NC(CC(=O)OC(C)(C)C)c1nnc(C)n1-2 (racemic) [(±)-JQ1, tert-butyl 2-(4-(4-chlorophenyl)-2,3,9-triMethyl-6H-thieno[3,2-f][1,2,4]triazolo[4,3-a][1,4]diazepin-6-yl)acetate]
Ratio ([…] DMSO IC50/combination IC50) ([1]; A549, in combination with 0.013 μM K102): 0.55
Ratio ([…] DMSO IC50/combination IC50) ([1]; A549, in combination with 0.04 μM K102): 0.57
Ratio ([…] DMSO IC50/combination IC50) ([1]; A549, in combination with 0.33 uM K101A): 0.27
Ratio ([…] DMSO IC50/combination IC50) ([1]; A549, in combination with 1 uM K101A): 0.09
effect in combination with K101A or K102 in inhibiting the growth of A549 cells ([1]; K101A or K102): strong antagonist effect
Combination in A549: K101A (synergism/antagonism) ([1]; agent assayed in combination with K101A, A549, * 2-3 concentrations, # full concentration ranges): Antagonism
Combination in A549: K102 (synergism/antagonism) ([1]; agent assayed in combination with K102, A549, * 2-3 concentrations, # full concentration ranges): Antagonism
effect in combination with K101A and K102 [2]: moderate or minor synergistic/additive effect

CCC/C=C/C=C/C(=O)O[C@H]1/C(=C/C(=O)OC)C[C@H]2C[C@H]([C@@H](C)O)OC(=O)C[C@H](O)C[C@@H]3C[C@H](OC(C)=O)C(C)(C)[C@](O)(C[C@@H]4C/C(=C/C(=O)OC)C[C@H](/C=C/C(C)(C)[C@]1(O)O2)O4)O3 [Compound K104, Bryostatin 1]
Top Inhibition % (AsPC-1; AsPC-1, 96 hours): 4.2%
pEC50 (AsPC-1; Homo sapiens, ASPC1, 96 h, read-out: Ab EC50): < 6.70
Top Inhibition % (CCRF-CEM; CCRF-CEM, 96 hours): 6.0%
pEC50 (CCRF-CEM; Homo sapiens, CCRF-CEM, 96 h, read-out: Ab EC50): < 6.70
pEC50 (Pan2.03; 96 h, read-out: Ab EC50): < 6.70
Top Inhibition % (Pan2.03; Pan2.03, 96 hours): 0.0%
pEC50 (Pan2.13; 96 h, read-out: Ab EC50): < 6.70
Top Inhibition % (Pan2.13; Pan2.13, 96 hours): 32.2%
Top Inhibition % (BxPC-3): 3.99%
Top Inhibition % (Colo205): 49.4%
Top Inhibition % (H1915): 25.1%
Top Inhibition % (H838): 20.0%
Top Inhibition % (HT29): 4.3%
activity in the proliferation assay / cancer cell lines [3]: much lower activity
potency in proliferation inhibition relative to prostratin ([3]; comparison with prostratin): less potent

CC(=O)OC12CC(C)C3(O)C(C=C(COC(=O)CC(N)C(=O)[O-])CC4(O)C(=O)C(C)=CC43)C1C2(C)C.[Na+] (stereo not drawn) [Compound K101I]
pEC50 (AsPC-1; AsPC-1 (K-RAS: G12D), absolute EC50, 96 hours, read-out: Ab EC50): < 4.52
Top Inhibition % (AsPC-1; AsPC-1, 96 hours): 25.0%
pEC50 (AsPC-1; AsPC-1, relative EC50, 96 hours, read-out: Re EC50): 5.18
pEC50 (CCRF-CEM; CCRF-CEM (K-RAS: G12D), absolute EC50, 96 hours, read-out: Ab EC50): < 4.52
Top Inhibition % (CCRF-CEM; CCRF-CEM, 96 hours): 37.4%
pEC50 (CCRF-CEM; CCRF-CEM, relative EC50, 96 hours, read-out: Re EC50): 5.82
pEC50 (Pan2.03; Pan2.03 (K-RAS: G12D), absolute EC50, 96 hours, read-out: Ab EC50): < 4.52
Top Inhibition % (Pan2.03; Pan2.03, 96 hours): 26.3%
pEC50 (Pan2.03; Pan2.03, relative EC50, 96 hours, read-out: Re EC50): 5.22
pEC50 (Pan2.13; Pan2.13 (K-RAS: Q61H), absolute EC50, 96 hours, read-out: Ab EC50): < 4.52
Top Inhibition % (Pan2.13; Pan2.13, 96 hours): 48.3%
pEC50 (Pan2.13; Pan2.13, relative EC50, 96 hours, read-out: Re EC50): 6.80
Top Inhibition % (BxPC-3): 38.12%
Top Inhibition % (Colo205): 82.2%
Top Inhibition % (H1915): 16.4%
Top Inhibition % (H838): 29.3%
Top Inhibition % (HT29): 11.8%
Top Inhibition % (RPMI8226): 17.60%
Top Inhibition % (SW900): 10.8%
